The subject of assay [1] is Methicillin-resistant S. aureus (MRSA 33591). Put plainly: Minimal inhibitory concentration (MIC), broth microdilution, MRSA. The format is cell-based. Particulars: Staphylococcus aureus, read-out: MIC (minimum inhibitory concentration). As for the experimental part: (§1) Minimal inhibitory concentration (MICs) assays were performed using the broth microdilution method set forth in NCCLS guidelines (see, NCCLS. 2000. Methods for Dilution Antimicrobial Susceptibility Tests for Bacteria That Grow Aerobically; Approved Standard—Fifth Ed., Vol. 20, No. 2). Bacterial strains were obtained from the American Type Tissue Culture Collection (ATCC), Stanford University Hospital (SU), Kaiser Permanente Regional Laboratory in Berkeley (KPB), Massachusetts General Hospital (MGH), the Centers for Disease Control (CDC), the San Francisco Veterans' Administration Hospital (SFVA) or the University of California San Francisco Hospital (UCSF). Vancomycinresistant enterococci were phenotyped as Van A or Van B based on their sensitivity to teicoplanin. Some vancomycin-resistant enterococci that had been genotyped as Van A, Van B, Van C1 or Van C2 were also obtained from the Mayo Clinic.
(§2) In this assay, cryopreserved bacterial cultures of reference and clinical strains were streaked for isolation on appropriate agar medium (i.e., Trypticase Soy Agar, Trypticase Soy Agar with defibrinated sheep erthrocytes, Brain Heart Infusion Agar, Chocolate Agar). Following incubation to allow formation of colonies, these plates were sealed with parafilm and stored refrigerated for up to two weeks. […] The MIC was read visually as the lowest concentration well with no bacterial growth. […]
For orientation: Broth dilution looks for growth in wells or tubes with falling amounts of substance.

The test system of assay [2] is Methicillin-sensitive S. aureus (MSSA 13709). The assay can be described thus: Minimal inhibitory concentration (MIC), broth microdilution, MSSA. It is filed as cell-based. Particulars: Staphylococcus aureus, read-out: MIC (minimum inhibitory concentration). As for the experimental part: as §1, §2
Assay [3] has as its system MSSA 13709. Put plainly: Time-kill assay, MSSA. The format is cell-based, Staphylococcus aureus. Particulars: bactericidal in 24 hours.
Procedure: (§3) Time-Kill Assay This time-kill assay is a method for measuring the rate of bactericidal activity of a test compound.
(§4) Bacteria were diluted in prewarmed media in shake flasks and incubated with shaking (200 rpm, 35° C.). At 0, 1, 4, and 24 hours samples were withdrawn from the flasks and bacteria were enumerated by plate counting. Subsequent to the initial sampling, a compound to be assayed was added to the shake flask culture. Plate counts at these intervals previous to and following addition of the compound were expressed graphically in a time-kill curve.
Assay [4] relates to MRSA 33591. Put plainly: Time-kill assay, MRSA. The settings on record: bactericidal in 24 hours. It is filed as cell-based, Staphylococcus aureus.
Procedure: as §3, §4
The test system of assay [5] is MRSA 33591. The assay can be described thus: In vivo efficacy in neutropenic mice (thigh infection). The settings on record: Staphylococcus aureus; neutropenic male CD-1 mice, MRSA 33591 thigh infection, iv, 24 hours post-treatment; read-out: ED50 (dose required to produce 50% of the maximum reduction in thigh titre). As for the experimental part: In vivo Efficacy Studies in Neutropenic Mice Animals (male CD-1 mice, 20-30 g) were acquired from Charles Rivers Laboratories (Gilroy, Calif.) and allowed access to food and water ad libitum. Neutropenia was induced via 200 mg/kg intraperitoneal (IP) injection of cyclophosphamide given four and two days prior to the inoculation of bacteria.
The organism used was either a susceptible or resistant strain of clinically relevant gram positive pathogens, such as methicillin-susceptible Staphylococcus aureus (MSSA 13709) and methicillin-resistant Staphylococcus aureus (MRSA 33591). The bacterial inoculum concentration was ˜10^6 CFU/mL. Animals were lightly anesthetized with isoflurane and […] of the bacterial inoculum was injected into the anterior thigh. One hour after the inoculation, animals were dosed intravenously with vehicle or the appropriate dose of the test compound. At 0 hours and 24 hours post-treatment, the animals were euthanized (CO2 asphyxiation) and the anterior and posterior thigh collected aseptically. The thigh was placed into 10 mL sterile saline and homogenized. Dilutions of the homogenate were plated onto triptic soy agar plates which were incubated overnight. The number of bacterial colonies on a given plate was multiplied by the dilution factor, divided by the thigh weight (in grams) and expressed as log CFU/g. […]

SMILES strings stand for the structures. ≈ marks a conversion by molar mass, not a printed value.

Regarding `CN[C@H](CC(C)C)C(=O)N[C@H]1C(=O)N[C@@H](CC(N)=O)C(=O)N[C@H]2C(=O)N[C@H]3C(=O)N[C@H](C(=O)N[C@H](C(=O)O)c4cc(O)cc(O)c4-c4cc3ccc4O)[C@H](O)c3ccc(c(Cl)c3)Oc3cc2cc(c3O[C@@H]2O[C@H](CO)[C@@H](O)[C@H](O)[C@H]2O[C@H]2C[C@](C)(N)[C@H](O)[C@H](C)O2)Oc2ccc(cc2Cl)[C@H]1O` [Vancomycin, vancomycin], the MIC came out at 2 µg/mL (≈ 1.38 µM) in assay [1] and 1 µg/mL (≈ 0.69 µM) in assay [2]. For the same compound, the “concentration at which bactericidal (≧3 log decrease in bacterial cell numbers)” value in assay [3] and in assay [4] was 4 μg/mL in each case. In addition, in assay [5], the ED50 (usually the dose at which the effect has come halfway, by size or by number of responders) was 9 mg/kg.

These data come from patent US6995138B2, “Cross-linked glycopeptide-cephalosporin antibiotics” (priority 2002, dated 2006).
